Reference: patent publication US12139488B2, “Pyrido[3,2-d]pyrimidine compounds uses thereof for treating a proliferative disease” (Universite de Montreal, priority 2021, dated 2024)
Where two headings read alike, the source gives them in different places.

Tests used:
Type in all cases: cell-based, human
[1] = system: pERK in NCI-H358 cells (KRAS-G12C); assay: Phospho-ERK inhibition (AlphaLISA), NCI-H358; details: for IC50: NCI-H358; for NCI-H358 pERK % Ymin: NCI-H358, value in parentheses
Description: (§1) All cancer cell lines (A375, A101D, A2058, RKO, HT29 SK-MEL 30, IPC298, HepG2, HCT-116, Lovo, SWV620, SW480, NCI-H358, NCI-H2122, Calu-6, NCIH2087, NCIH1755, NCIH1666 and Mewo) were obtained from ATCC and cultured in RPMI-1640 medium (Gibco) supplemented with 5% heat inactivated fetal bovine serum (FBS, Wisent) at 37° C. under 5% CO2. Cells were maintained in T175 flasks (Greiner). They were passaged by removing the culture medium, washing once in 10 mL of room temperature Phosphate Buffered Saline (PBS; Wisent) and incubating at 37° C. with 2 mL of 0.05% Trypsin (Thermo-Fisher). Trypsin was then inactivated by adding complete growth medium and the cells were then replated in a T175 culture dish at the appropriate dilution. All cell lines were routinely tested for mycoplasma contamination. Tissue type and mutational status of each cell line can be found in Table B.
(§2) AlphaLISA® SureFire® Ultra™ p-ERK 1/2 (Thr202/Tyr204) analysis was conducted on cells plated in 100 μL of complete RPMI-1640 growth medium in 96-well flat-bottomed transparent dishes (Costar) at a density indicated in Table C. Cells were maintained overnight at 37° C. under 5% CO2 before treatment with compounds' dilution series for one hour. The cell density in cells/cm^2 corresponds to cell number divided by the area of one well of a 96-well plate ([…]).
(§3) In a dilution series 100 μL/well of test substance dilution prepared in complete RPMI-1640 growth media was added to the cells. The dilution series is selected so that ten concentrations cover a range from 10 μM to 0.33 nM. If necessary the initial concentration of 10 μM is increased to 100 μM or lowered to 1 μM (as in the case of A375 and H1666 cells, which are generally more sensitive to the compounds) and further dilution is carried out accordingly. The final concentration of DMSO in the assay is set at 0.5%.
(§4) After treatment, media was removed and cells were lysed in 50 μL of 1× AlphaScreen Ultra Lysis Buffer (Perkin Elmer). The AlphaLISA® SureFire® Ultra™ p-ERK 1/2 (Thr202/Tyr2O4) (PerkinElmer) reactions were performed with 5 μL of cell lysate according to the manufacturer's specifications in 384-well proxyplates (Perkin Elmer) followed by overnight incubation of the reactions at room temperature in a humidified chamber. After completion of the reactions, the signals were recorded on an EnVision plate reader (Perkin Elmer) using built in AlphaLISA® settings.
(§5) The effect of each compound dilution on the pERK signal was expressed in % inhibition and calculated as follows. An internal 100% inhibition control ([…] trametinib, cat #HY-10999; MedChem Express; CAS #871700-17-3) was included in each plate and used as a measure of pERK background. First, the value obtained for trametinib was subtracted from each data point. The average of DMSO (vehicle) controls (set as 0% inhibition) was established and used to calculate % inhibition: % inhibition=100*(1-((pERK signalcompound)/(pERK signalDMSO)))
(§6) The ability of each compound to inhibit pERK signal was expressed as an IC50 value obtained by plotting the inhibition values for each data point of a dilution series and fitting the obtained curves using a log(agonist) versus response-variable slope (four parameters) function using GraphPadPrism (V7.0) or Dotmatics Screening Ultra platform.
(§7) When present, paradoxical pERK induction is inferred from the negative % inhibition values observed in the pERK IC50 curves of a compound.

[2] = system: pERK in SW620 cells (KRAS-G12V); assay: Phospho-ERK inhibition (AlphaLISA), SW620; details: for SW620 pERK % Ymin: SW620, value in parentheses
Description: as §1, §2, §3, §4, §5, §6, §7

[3] = system: HCT-116 cells (KRAS G13D); assay: Proliferation inhibition (CellTiter-Glo), HCT116; details: HCT116, 3 days, read-out: HCT116 Prolif. EC50
Description: as §1
(§8) CellTiter-Glo® viability analysis was conducted on cells plated in 100 μL of complete RPMI-1640 growth medium in 96-well flat-bottomed white opaque plates (Greiner or Croning) at a density indicated in Table E (for each CCL, number of cells plated per well of a 96-well plate to perform the CellTiter-Glo® cell viability assay). The cell density in cells/cm^2 would correspond to cell number divided by the area of one well of a 96-well plate (0.32 cm^2). […]
(§9) After 3 days of incubation, the growth media were removed by aspiration and 60 μL of diluted CellTiter-Glo® reagent (10 μL CellTiter-Glo® reagent+50 μL of PBS) was added to each well. […] Luminescence signals were then acquired on a Synergy Neo2 plate reader (Biotek).
(§10) The effect of each compound dilution on the proliferation of cancer cell lines was expressed in % inhibition and calculated as follows. […]
as §6, with “proliferation” for “pERK signal”, “a EC50” for “an IC50”, “effect” for “inhibition”

Mewo cells (NF1 LOF) = assay: Proliferation inhibition (CellTiter-Glo), Mewo; details: 3 days, read-out: Mewo Prolif. EC50
Description: as §1, §8, §9, §10
as §6, with “proliferation” for “pERK signal”, “a EC50” for “an IC50”, “effect” for “inhibition”

[4] = system: NCI-H2122 cells (KRAS-G12C); assay: Proliferation inhibition (CellTiter-Glo), NCI-H2122; details: NCI-H2122, 3 days, read-out: NCI-H2122 Prolif. EC50
Description: as §1, §8, §9, §10
as §6, with “proliferation” for “pERK signal”, “a EC50” for “an IC50”, “effect” for “inhibition”

[5] = system: pERK in NCIH2087 cells (BRAF L597V; KRAS Q61K); assay: Phospho-ERK inhibition (AlphaLISA), NCIH2087; details: for NCIH2087 pERK % Ymin: NCIH2087, value in parentheses
Description: as §1, §2, §3, §4, §5, §6, §7

Question: Cc1ccc2c(Nc3cccc(Cl)c3F)nccc2c1NC(=O)c1csc2c(N)ncnc12 [Belvarafenib, reference compound] was tested. Which IC50 ([1]; Homo sapiens) did it give?
Answer: 30 to 300 nM

Question: What about the “NCI-H358 pERK % Ymin” value [1] of the same compound?
Answer: −122%

Question: And the IC50 ([2]; Homo sapiens, SW-620)?
Answer: 30 to 300 nM

Question: What about the “SW620 pERK % Ymin” value [2] of the same compound?
Answer: −151%

Question: And the EC50 ([3]; Homo sapiens, HCT-116, 72 h)?
Answer: 300 to 3000 nM

Question: And the EC50 (Mewo cells (NF1 LOF); Homo sapiens, 72 h)?
Answer: 300 to 3000 nM

Question: And the EC50 ([4]; Homo sapiens, 72 h)?
Answer: 300 to 3000 nM

Question: What about the IC50 ([5]; Homo sapiens, NCI-H2087) of the same compound?
Answer: < 30 nM

Question: And the “NCIH2087 pERK % Ymin” value [5]?
Answer: 6%

Question: How did the IC50 [1] turn out when Nc1cccc2c1ncn2-c1ccc2ncnc(Nc3c(F)ccc(NS(=O)(=O)c4cccc(Cl)c4Cl)c3F)c2n1 [Example 99] was run?
Answer: 30 to 300 nM

Question: And the “NCI-H358 pERK % Ymin” value [1]?
Answer: 11%

Question: And the IC50 ([2]; SW620)?
Answer: 30 to 300 nM

Question: What about the “SW620 pERK % Ymin” value [2] of the same compound?
Answer: −11%

Question: And the EC50 [3]?
Answer: 300 to 3000 nM

Question: What about the EC50 (Mewo cells (NF1 LOF)) of the same compound?
Answer: < 30 nM

Question: And the EC50 [4]?
Answer: 300 to 3000 nM

Question: What about the IC50 ([5]; NCIH2087) of the same compound?
Answer: < 30 nM

Question: What about the “NCIH2087 pERK % Ymin” value [5] of the same compound?
Answer: 15%

Question: What does the source list for CC1(O)CCN(c2cccc3c2ncn3-c2ccc3ncnc(Nc4c(F)ccc(NS(=O)(=O)c5cccc(Cl)c5Cl)c4F)c3n2)CC1 [Example 524]?
Answer: IC50 [1]: 30 to 300 nM; NCI-H358 pERK % Ymin [1]: −13%; IC50 ([2]; SW620): 30 to 300 nM; SW620 pERK % Ymin [2]: −4%; EC50 [3]: 300 to 3000 nM; EC50 (Mewo cells (NF1 LOF)): < 30 nM; EC50 [4]: 300 to 3000 nM; IC50 ([5]; NCIH2087): < 30 nM; NCIH2087 pERK % Ymin [5]: 3%
